Where two headings read alike, the source gives them in different places.

One series concerns HSV-1. The experiment in a line: HSV-1 ELISA assay. The conditions noted are these: read-out: 50% Inhibitory Concentration, Antiviral Activity (ELISA). In kind it is cell-based, HSV-1 (KOS strain). As for the experimental part: (§1) A plaque purified isolate, Po, of the Towne strain of HCMV was used in all experiments and was a gift of Dr. Mark Stinski, University of Iowa. The KOS strain of HSV-1 was used and was provided by Dr. Sandra K. Weller, University of Connecticut. Stock preparations of HCMV and HSV-1 were prepared and titered as known to those of skill and the art and described in Turk, S. R. et al. (1987) Antimicrob. Agents Chemother. Vol. 31:544-550 and Shipman, C., Jr., et al. (1990) J. Virol. Methods Vol. 28:101-106, each incorporated herein by reference.
(§2) HCMV plaque reduction experiments were performed with monolayer cultures of HFF cells by a procedure similar to that referenced above for titration of the viruses and described in Devivar, R. V. et al. (1994) J. Med. Chem. Vol. 37:2942-2949. Activity of compounds against HSV-1 was evaluated using an ELISA assay.
ELISA techniques according to standard procedures were also used to determine activity against HSV-1. Drug effects were calculated as a percentage of the reduction in virus titers in the presence of each drug concentration compared to the titer obtained in the absence of drug. Ganciclovir was used as a positive control in all experiments.
(§3) Dose-response relationships can be used to compare drug effects. These are constructed by linearly regressing the percent inhibition of parameters derived in the preceding sections against log drug concentrations. The 50 inhibitory (I50) concentrations were calculated from the regression lines using the methods described by Goldstein. See Goldstein, A., Biostatistics: An Introductory Text, MacMillan, New York, pp. 156-161 (1964), incorporated herein by reference.
(§4) (2) A plaque assay was used to quantitate anti HCMV activity, an ELISA assay was used to quantitate activity against HSV-1. DHPG (ganciclovir) was used as a positive control for the HCMV assay.
(In general: ELISA stands for enzyme-linked immunosorbent assay.)

Another series relates to HFF cells. Put plainly: Visual cytotoxicity in stationary HFF cells at time of plaque enumeration. The series is classed as cell-based, human. The note with it: visual cytotoxicity on HFF cells at time of HCMV plaque enumeration; read-out: 50% Inhibitory Concentration, Cytotoxicity (HFF). As for the experimental part:
(§5) KB cells (available from the American Type Culture Collection (ATCC) 12301 Parklawn Drive, […], Md. 20852 (ATCC CCL 17)), an established human cell line derived from an epidermal oral carcinoma, were grown in minimal essential medium (MEM) (Sigma) with Hanks salts (MEM(H)) supplemented with 5% fetal calf serum. Human foreskin fibroblasts (HFF cells) (provided by the University of Michigan Hospital) and African green monkey kidney cells (BSC-1) (ATTC CCL 26) cells were grown in MEM with Earl salts (MEM(E)) supplemented with 10% fetal bovine serum. Cells were passaged according to conventional procedures and as described in Shipman, C., Jr. et al. (1976) Antimicrob. Agents Chemother. Vol. 9:120 and incorporated herein by reference. Briefly, cells were passaged at 1:2 to 1:10 dilutions according to conventional procedures by using 0.05% trypsin plus 0.02% EDTA in a HEPES buffered salt solution. HFF cells were passaged only at 1:2 dilutions.
(§6) Two different methods were used to evaluate cytotoxicity of the compounds. First, cytotoxicity produced in stationary HFF cells was determined by microscopical examination of cells not affected by the virus used in the plaque assay. Second the effect of compounds on KB cells during two population doubling times was determined by crystal violet staining and spectrophotometric quantitation of dye eluted from stained cells. This method has been utilized for the analysis of ganciclovir and zidovudine (See Prichard, M. N. et al. Antiviral Res. (1991) Vol. 35:1060-1065).
(§7) (3) Visual cytotoxicity was scored on HFF cells at the time of HCMV plaque enumeration. Inhibition of KB cell growth was determined as described in the experimental. 3L was used as a positive control for the KB cytotoxicity assay.

For the next series, the system named is KB cells. The experiment in a line: Inhibition of KB cell growth (crystal violet staining). The series is classed as cell-based, human. The note with it: for IC50: inhibition of KB cell growth, read-out: 50% Inhibitory Concentration, Cytotoxicity (KB). As for the experimental part: as §5, §6, §7
The subject of a further series is HCMV. Put plainly: HCMV plaque (focus) reduction assay in HFF cells. The note with it: HCMV plaque assay, HFF cells, averages from two or more experiments, read-out: 50% Inhibitory Concentration, Antiviral Activity (plaque). In kind it is cell-based, HCMV (Towne strain). Here is the method:
as §1, §2
The effect of compounds of the replication of HCMV was measured using a plaque (focus) reduction assay. For the former, HFF cells in 24-well culture dishes were infected with approximately 50 p.f.u. of HCMV per well using the procedures detailed above. Compounds dissolved in growth medium were added in four to six selected concentrations to duplicate wells following virus adsorption. Following incubation at 37° C. for 7 to 10 days, cell sheets were fixed, stained and microscopic plaques were enumerated as described above. Drug effects were calculated as a percentage of reduction in number of plaques in the presence of each drug concentration compared to the number observed in the absence of drug. DHPG (ganciclovir) was used as a positive control in all experiments.
as §3, §4

Another series has as its system L1210 cells. Put plainly: Antiproliferative activity: growth of L1210 cells. The series is classed as cell-based, mouse. The conditions noted are these: concentration required to decrease final growth rate of L1210 cells to half of control rate; read-out: 50% Inhibitory Concentration, Antiproliferative Activity. Here is the method: Antiproliferative activity was evaluated by measuring the effect of the compounds on the growth of L1210 cells, a mouse leukemia cell line which is generally available and can be obtained from Cancer Chemotherapy Center, Japanese Foundation for Cancer Research. Antiproliferative activity was measured using conventional procedures and as described in Wotring, L. L. and Townsend, L. B., (1979) Cancer Res. Vol. 39:3018-3023 and Cory, A. H. et al. (1991) Cancer Comm. Vol. 3:207-212, each incorporated herein by reference.
(8) The concentration required to decrease the final growth rate of L1210 cells to half of the control rate. All values are averages from two or more experiments.

Series [1] is described as follows: Visual cytotoxicity in stationary HFF cells at time of plaque enumeration. The note with it: human, stationary human foreskin fibroblasts (HFF cells); visual cytotoxicity on HFF cells at time of HCMV plaque enumeration; read-out: 50% Inhibitory Concentration, Cytotoxicity (HFF). In kind it is cell-based, human. As for the experimental part: as §5, §6, §7
Series [2] in a line: Inhibition of KB cell growth (crystal violet staining). In kind it is cell-based, human. The conditions noted are these: human, KB cells (human epidermal oral carcinoma line); inhibition of KB cell growth; read-out: 50% Inhibitory Concentration, Cytotoxicity (KB). As for the experimental part:
as §5, §6, §7

The mark [3] stands for this setting: averages from two or more experiments.
The mark [4] stands for this setting: Human alphaherpesvirus 1, averages from two or more experiments.

Turning to `O[C@@H]1[C@H](O)[C@@H](CBr)O[C@H]1n1c(Cl)nc2cc(Cl)c(Cl)cc21` [Compound 13c, 2,5,6-trichloro-1-(5′-deoxy-5′-bromo-β-D-ribofuranosyl)benzimidazole], the IC50 is > 100 µM in the series on HSV-1 (setting [3]), 32 µM with HFF cells, 90 µM in the series with KB cells and 1.5 µM in the series on HCMV.

In the case of `CC(=O)O[C@@H]1[C@H](OC(C)=O)[C@@H](CCl)O[C@H]1n1c(Cl)nc2cc(Cl)c(Cl)cc21` [Compound 12b, 2,5,6-trichloro-1-(2′,3′-di-O-acetyl-5′-deoxy-5′-chloro-β-D-ribofuranosyl)benzimidazole], the IC50 in the series on HSV-1 (setting [3]) was > 100 µM; with HFF cells, 32 µM; in the series with KB cells, 90 µM; with HCMV it was 1.4 µM.

For the compound `CC(=O)O[C@@H]1[C@H](OC(C)=O)[C@@H](CBr)O[C@H]1n1c(Cl)nc2cc(Cl)c(Cl)cc21` [Compound 12c, 2,5,6-trichloro-1-(2′,3′-di-O-acetyl-5′-deoxy-5′-bromo-β-D-ribofuranosyl)benzimidazole], the IC50 in the series on HSV-1 (setting [3]) was > 100 µM; in the series with HFF cells, 32 µM; with KB cells, 60 µM; in the series with HCMV it was 2.7 µM.

Consider `CC1(C)O[C@@H]2[C@H](O1)[C@@H](CCl)O[C@H]2n1c(Cl)nc2cc(Cl)c(Cl)cc21` [Compound 19b, 2,5,6-Trichloro-1-(2′,3′-O-isopropylidene-5′-deoxy-5′-chloro-β-D-ribofuranosyl) benzimidazole], for which the IC50 in the series on HSV-1 (setting [3]) is > 100 µM; in the series on HFF cells, 66 µM; with KB cells, 100 µM; in the series with HCMV it was 13.5 µM.

`CC1(C)OC2C(CN=[N+]=[N-])OC(n3c(Cl)nc4cc(Cl)c(Cl)cc43)C2O1` [Compound 19a, 2,5,6-Trichloro-1-(2′,3′-O-isopropylidene-5′-deoxy-5′-azido-β-D-ribofuranosyl) benzimidazole]: the figures for the IC50 with HFF cells and with HCMV were 32 µM and 10.9 µM, respectively.

Consider `CC(=O)O[C@@H]1[C@H](OC(C)=O)[C@@H](CI)O[C@H]1n1c(Cl)nc2cc(Cl)c(Cl)cc21` [Compound 12d, 2,5,6-trichloro-1-(2′,3′-di-O-acetyl-5′-deoxy-5′-iodo-β-D-ribofuranosyl)benzimidazole], for which the IC50 is > 100 µM with HSV-1 (setting [3]), 32 µM in the series with HFF cells, 60 µM with KB cells and 2.5 µM with HCMV.

For `O[C@@H]1[C@H](O)[C@@H](CCl)O[C@H]1n1c(Cl)nc2cc(Cl)c(Cl)cc21` [Compound 13b, 2,5,6-trichloro-1-(5′-deoxy-5′-chloro-β-D-ribofuranosyl)benzimidazole], the IC50 was > 100 µM in the series with HSV-1 (setting [3]); 32 µM with HFF cells; 90 µM with KB cells; 1 µM in the series with HCMV; > 100 µM in the series on L1210 cells.

Take `CSC[C@H]1O[C@@H](n2c(Cl)nc3cc(Cl)c(Cl)cc32)[C@H](OC(C)=O)[C@@H]1OC(C)=O` [Compound 16b, 2,5,6-trichloro-1-(2′,3′-di-O-acetyl-5′-deoxy-5′-methylthio-β-D-ribofuranosyl) benzimidazole]: the IC50 was > 100 µM with HSV-1 (setting [3]), 32 µM in the series with HFF cells, > 100 µM with KB cells and 4.8 µM in the series with HCMV.

As for `CC(=O)O[C@@H]1[C@H](OC(C)=O)[C@@H](CF)O[C@H]1n1c(Cl)nc2cc(Cl)c(Cl)cc21` [Compound 12a, 2,5,6-trichloro-1-(2′,3′-di-O-acetyl-5′-deoxy-5′-fluoro-β-D-ribofuranosyl)benzimidazole], the IC50 in the series with HSV-1 (setting [3]) is > 100 µM; in the series with HFF cells, 32 µM; in the series with KB cells it was 100 µM; in the series with HCMV it was 0.6 µM. The “cytotoxicity in growing KB cells (in words)” value in the series with KB cells is reported as “little or no cytoxicity”.

As for `CC1(C)O[C@@H]2[C@H](O1)[C@@H](CO)O[C@H]2n1c(Cl)nc2cc(Cl)c(Cl)cc21` [Compound 18, 2,5,6-Trichloro-1-(2′,3′-O-isopropylidene-β-D-ribofuranosyl)benzimidazole], the IC50 with HFF cells was > 100 µM; in the series on HCMV, 12.4 µM.

As to `OC[C@H]1O[C@@H](n2c(Cl)nc3cc(Cl)c(Cl)cc32)[C@H](O)[C@@H]1O` [Compound 1, 2,5,6-trichloro-1-(β-D-ribofuranosyl)benzimidazole, reference compound], the IC50 is > 100 µM in the series with HSV-1 (setting [4]); 238 µM in series [1]; 2.76 µM in the series on HCMV (Human betaherpesvirus 5, HFF). Moreover, in series [2], the IC50 at 2 population doubling times stood at 210 µM.

For `CC(=O)O[C@@H]1[C@H](OC(C)=O)[C@@H](CN=[N+]=[N-])O[C@H]1n1c(Cl)nc2cc(Cl)c(Cl)cc21` [Compound 16a, 2,5,6-trichloro-1-(2′,3′-di-O-acetyl-5′-deoxy-5′-azido-β-D-ribofuranosyl)benzimidazole], the IC50 with HSV-1 (setting [3]) is > 100 µM; with HFF cells it was 32 µM; with KB cells, 70 µM; in the series on HCMV, 1.5 µM.

`O[C@@H]1[C@H](O)[C@@H](CI)O[C@H]1n1c(Cl)nc2cc(Cl)c(Cl)cc21` [Compound 13d, 2,5,6-trichloro-1-(5′-deoxy-5′-iodo-β-D-ribofuranosyl)benzimidazole]: the IC50 was 32 µM in the series on HFF cells and 3.2 µM in the series with HCMV.

As to `Nc1nc(O)c2ncn(COC(CO)CO)c2n1` [DHPG, ganciclovir, reference compound], the IC50 is 3.5 µM in the series with HSV-1 (setting [4]) and > 100 µM in series [1]. In series [2], the IC50 at 2 population doubling times was > 100 µM.

The record behind these values is US20010011075A1, “5'-SUBSTITUTED-RIBOFURANOSYL BENZIMIDAZOLES AS ANTIVIRAL AGENTS” (priority 1999, published 2001).
